Source: the supplement of paper PMC10307832

Key:
Assay in all cases: relative viability (nuclei count vs DMSO), 5 days (fraction); higher = more cells survive
IMD-0354 + OSI-027 = compound: O=C(Nc1cc(C(F)(F)F)cc(C(F)(F)F)c1)c1cc(Cl)ccc1O [IMD-0354] + COc1cccc2cc(-c3nc([C@H]4CC[C@H](C(=O)O)CC4)n4ncnc(N)c34)[nH]c12 [OSI-027] (partner 0.5 µM)
In short: (§1)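 Lung cancer cell lines were seeded in 1536-well plates and dosed by pin tool the next day, with either a single drug or a fixed anchor-drug dose combined with five library-drug doses (not always all listed) spaced in √10 steps. Five days later, one step fixed the cells and stained their nuclei (final 0.05% Triton X-100, 1% formaldehyde, 1 ug/ml Hoechst), and nuclei were counted on 4× images. Relative viability is the nuclei count in treated wells divided by the count in vehicle wells, and each value is the median of duplicate plates.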

IMD-0354 + Vorinostat = compound: O=C(Nc1cc(C(F)(F)F)cc(C(F)(F)F)c1)c1cc(Cl)ccc1O [IMD-0354] + O=C(CCCCCCC(=O)Nc1ccccc1)NO [Vorinostat] (partner 1 µM)
In short: as §1

IMD-0354 + Linsitinib = compound: O=C(Nc1cc(C(F)(F)F)cc(C(F)(F)F)c1)c1cc(Cl)ccc1O [IMD-0354] + C[C@]1(O)C[C@@H](c2nc(-c3ccc4ccc(-c5ccccc5)nc4c3)c3c(N)nccn32)C1 [Linsitinib] (partner 1 µM)
In short: as §1

IMD-0354 + Alpelisib = compound: O=C(Nc1cc(C(F)(F)F)cc(C(F)(F)F)c1)c1cc(Cl)ccc1O [IMD-0354] + Cc1nc(NC(=O)N2CCC[C@H]2C(N)=O)sc1-c1ccnc(C(C)(C)C(F)(F)F)c1 [Alpelisib] (partner 2 µM)
In short: as §1

| Cell Line | relative viability (IMD-0354 + OSI-027; first compound 0.04 µM) | relative viability (IMD-0354 + OSI-027; first compound 0.1265 µM) | relative viability (IMD-0354 + OSI-027; first compound 0.4 µM) | relative viability (IMD-0354 + OSI-027; first compound 1.265 µM) | relative viability (IMD-0354 + OSI-027; first compound 4 µM) | relative viability (IMD-0354 + Vorinostat; first compound 0.04 µM) | relative viability (IMD-0354 + Vorinostat; first compound 0.1265 µM) | relative viability (IMD-0354 + Vorinostat; first compound 0.4 µM) | relative viability (IMD-0354 + Vorinostat; first compound 1.265 µM) | relative viability (IMD-0354 + Vorinostat; first compound 4 µM) | relative viability (IMD-0354 + Linsitinib; first compound 0.04 µM) | relative viability (IMD-0354 + Linsitinib; first compound 0.1265 µM) | relative viability (IMD-0354 + Linsitinib; first compound 0.4 µM) | relative viability (IMD-0354 + Linsitinib; first compound 1.265 µM) | relative viability (IMD-0354 + Linsitinib; first compound 4 µM) | relative viability (IMD-0354 + Alpelisib; first compound 0.04 µM) | relative viability (IMD-0354 + Alpelisib; first compound 0.1265 µM) | relative viability (IMD-0354 + Alpelisib; first compound 0.4 µM) | relative viability (IMD-0354 + Alpelisib; first compound 1.265 µM) | relative viability (IMD-0354 + Alpelisib; first compound 4 µM) |
| --- | --- | --- | --- | --- | --- | --- | --- | --- | --- | --- | --- | --- | --- | --- | --- | --- | --- | --- | --- | --- |
| NCI-H522 | 0.723 | 0.683 | 0.688 | 0.385 | 0.343 | 1.02 | 0.865 | 0.637 | 0.757 | 0.449 | – | – | – | – | – | – | – | – | – | – |
| HCC-15 | 0.656 | 0.615 | 0.366 | 0.164 | 0.131 | 0.931 | 0.799 | 0.516 | 0.327 | 0.2 | 0.801 | 0.812 | 0.489 | 0.376 | 0.141 | 0.861 | 0.853 | 0.466 | 0.272 | 0.0938 |
| A-427 | 0.66 | 0.459 | 0.288 | 0.127 | 0.135 | 0.891 | 0.855 | 0.397 | 0.164 | 0.162 | 1.21 | 1.1 | 0.986 | 0.719 | 0.115 | 1.04 | 1.13 | 0.815 | 0.69 | 0.104 |
| NCI-H2228 | 0.586 | 0.431 | 0.348 | 0.23 | 0.142 | 0.439 | 0.542 | 0.434 | 0.425 | 0.247 | 0.563 | 0.795 | 0.544 | 0.167 | 0.409 | 0.686 | 0.738 | 0.631 | 0.263 | 0.182 |
| NCI-H1734 | 0.625 | 0.662 | 0.44 | 0.281 | 0.137 | 0.879 | 0.781 | 0.454 | 0.301 | 0.102 | 1.04 | 0.936 | 0.513 | 0.596 | 0.231 | 0.944 | 0.786 | 0.422 | 0.452 | 0.254 |
| SK-LU-1 | 0.32 | 0.305 | 0.277 | 0.181 | 0.193 | 0.796 | 0.597 | 0.623 | 0.194 | 0.264 | 1.41 | 0.863 | 0.621 | 0.24 | 0.264 | 1.39 | 0.658 | 0.472 | 0.174 | 0.215 |
| PC-14 | 0.972 | 0.805 | 0.284 | 0.115 | 0.0708 | 0.83 | 0.751 | 0.564 | 0.234 | 0.119 | 1.01 | 0.841 | 0.604 | 0.403 | 0.175 | 1.13 | 0.681 | 0.587 | 0.525 | 0.219 |
| NCI-H1915 | 0.589 | 0.629 | 0.107 | 0.241 | 0.155 | 0.496 | 0.509 | 0.339 | 0.334 | 0.115 | 0.968 | 1.12 | 0.944 | 0.866 | 0.255 | 0.926 | 1.05 | 0.854 | 0.612 | 0.214 |
| NCI-H1666 | 0.86 | 0.841 | 0.641 | 0.415 | 0.302 | 1.03 | 1.01 | 0.805 | 0.908 | 0.832 | 0.747 | 0.957 | 0.609 | 0.17 | 0.299 | 0.982 | 0.961 | 0.966 | 0.208 | 0.196 |
| HCC-366 | 0.909 | 0.929 | 0.496 | 0.209 | 0.0404 | 0.314 | 0.439 | 0.206 | 0.165 | 0.0652 | 0.947 | 0.85 | 0.221 | 0.365 | 0.0421 | 0.509 | 0.727 | 0.148 | 0.373 | 0.0309 |
| LK-2 | 0.193 | 0.198 | 0.235 | 0.19 | 0.215 | 0.291 | 0.284 | – | 0.158 | 0.216 | 0.527 | 0.505 | – | 0.863 | 0.19 | 1.77 | 0.711 | 0.647 | 0.611 | 0.372 |
| NCI-H661 | 0.812 | 0.66 | 0.577 | 0.264 | 0.25 | 0.835 | 0.714 | 0.455 | 0.248 | 0.2 | 0.65 | 0.632 | 0.57 | 0.532 | 0.251 | 0.838 | 0.772 | 0.401 | 0.345 | 0.248 |
| PC-3 [JPC-3] | 0.845 | 0.708 | 0.605 | 0.344 | 0.282 | 0.869 | 0.813 | 0.769 | 0.296 | 0.412 | 0.975 | 0.945 | 0.826 | 0.734 | 0.251 | 1.1 | 1.04 | 0.714 | 0.774 | 0.183 |
| NCI-H1623 | 0.464 | 0.395 | 0.458 | 0.409 | 0.37 | – | – | – | – | – | – | – | – | – | – | – | – | – | – | – |
| Calu-6 | – | – | – | – | – | – | – | – | – | – | 0.92 | 0.859 | 0.862 | 0.0995 | 0.0777 | 0.925 | 0.909 | 0.672 | 0.101 | 0.0892 |
